Reference: patent US9464049B2, “Indole-carboxamides” (Hoffmann-La Roche Inc., priority 2013, dated 2016)

Columns and labels:
[1] = system: human embryonic stem cell derived neural stem cells (NSCs); test: Neural stem cell proliferation assay (neurogenesis assay, ATP levels by CellTiterGlo); type: cell-based; conditions: compound concentration at which 150% activity of control (100%) is reached, NSC proliferation by ATP (CellTiterGlo) after 4 days incubation, dose response 8 μM to 8 nM
Protocol: Neural Stem Cell Proliferation Assay
Neurogenic properties of small molecules are determined based on the proliferation of human embryonic stem cell derived neural stem cells (NSCs) which were derived via a dual smad inhibition as previously described (Chambers, S. M., et al., Highly efficient neural conversion of human ES and iPS cells by dual inhibition of SMAD signaling, Nature biotechnology, 2009. 27(3): p. 275-80.)
Compounds respond is measured by the increase in cells based on ATP levels (Promega:CellTiterGlo®) after an incubation period of 4 days.
NSCs are thawed and expanded over 3 passages. On the 14th day, NSCs are seeded in Polyornithin/Laminin coated 384 well plates at a cell density of 21,000 cells/cm^2 in a media volume of 38 μl.
4 hours after cell seeding, compound solutions are added at a volume of 2 μl. Stock solutions of the compounds (water, 5% DMSO) are diluted to obtain a dose response (11 points, dilution factor is 2), ranging from 8 μM to 8 nM. Controls are run to consistently determine the neurogenic properties of the cells: • Negative (neutral) control is cell culture Media (final DMSO concentration: 0.25%). • Positive controls are: • 1. cell culture Media+100 ng/ml FGF2 (final DMSO concentration: 0.1%) • 2. cell culture Media+20 ng/ml EGF (final DMSO concentration: 0.1%) • 3. cell culture Media+100 ng/ml Wnt3a (final DMSO concentration: 0.1%)
After 4 days incubation at 37° C., 5% CO2, the amount of ATP per well is quantified. The ATP concentration is proportional to the cell number. ATP is quantified by using the Promega CellTiterGlo® kit. The CellTiterGlo® reagents contain a cell lysis buffer, a thermo stable luciferase (UltraGlo™ recombinant luciferase), magnesium and luciferin. Luciferin reacts with ATP producing oxyluciferin, AMP and light. The luminescence signal is proportional to the ATP content.
The value of negative (neutral) control is determined for each assay plate by taking the average of 16 negative control wells. The neurogenic compound response is calculated for each compound as (compound/Negative Control)*100.
The values of EC150 from the dose response curve are determined for each test compound. The EC150 is the compound concentration at which 150% activity of control (100%) is reached.

[2] = Homo sapiens, Neural stem cell, 96 h

Compound	EC (150% of control) [1, 2] [µM]	melting point [°C]	EC (150% of control) [1] [µM]
Cc1c(C(N)=O)n(C)c2c(-c3ccc(F)c(F)c3)cc(C#N)cc12 [Example 5, 5-Cyano-7-(3,4-difluorophenyl)-1,3-dimethylindole-2-carboxamide]	0.35	212	
Cc1c(C(N)=O)n(C)c2c(-c3ccc(Cl)cc3)cc(Cl)cc12 [Example 14, 5-Chloro-7-(4-chlorophenyl)-1,3-dimethylindole-2-carboxamide]	0.84	195	
Cc1c(C(N)=O)n(C)c2c(-c3ccc(OC(F)(F)F)cc3)cc(F)cc12 [Example 60, 5-Fluoro-1,3-dimethyl-7-[4-(trifluoromethoxy)phenyl]indole-2-carboxamide]	0.22	171	
Cc1c(C(N)=O)n(C)c2c(-c3ccc(C#N)cc3)cc(Cl)cc12 [Example 28, 5-Chloro-7-(4-cyanophenyl)-1,3-dimethylindole-2-carboxamide]	1.06	199	
Cc1c(C(N)=O)[nH]c2c(-c3ccc(Cl)cc3)cc(F)cc12 [Example 46, 7-(4-Chlorophenyl)-5-fluoro-3-methyl-1H-indole-2-carboxamide]	0.066	230	
Cc1cc(-c2cc(C#N)cc3cc(C(N)=O)[nH]c23)ccc1F [Example 66, 5-Cyano-7-(4-fluoro-3-methylphenyl)-1H-indole-2-carboxamide]	0.62	247	
Cc1c(C(N)=O)[nH]c2c(-c3ccc(C(F)(F)F)cc3)cc(C#N)cc12 [Example 8, 5-Cyano-3-methyl-7-[4-(trifluoromethyl)phenyl]-1H-indole-2-carboxamide]	0.4	243	
N#Cc1cc(-c2ccc(OC(F)(F)F)cc2)c2[nH]c(C(N)=O)cc2c1 [Example 44, 5-Cyano-7-[4-(trifluoromethoxy)-phenyl]-1H-indole-2-carboxamide]	0.17	247	
Cc1ccc(-c2cc(F)cc3c(C)c(C(N)=O)[nH]c23)cc1 [Example 74, 5-Fluoro-3-methyl-7-(4-methylphenyl)-1H-indole-2-carboxamide]	0.17	192	
Cc1c(C(N)=O)n(C)c2c(-c3ccc(Cl)cc3)cc(F)cc12 [Example 50, 7-(4-Chlorophenyl)-5-fluoro-1,3-dimethylindole-2-carboxamide]	0.12	210	
NC(=O)c1cc2cc(F)cc(-c3ccc(F)cc3)c2[nH]1 [Example 3, 5-Fluoro-7-(4-fluoro-phenyl)-1H-indole-2-carboxamide]	0.18	162	
5-Cyano-7-3,4-difluorophenyl)-1H-indole-2-carboxamide [Example 33]			0.056
Cn1c(C(N)=O)cc2cc(C#N)cc(-c3ccc(Cl)cc3)c21 [Example 39, 7-(4-Chlorophenyl)-5-cyano-1-methylindole-2-carboxamide]	0.18	176	
Cc1c(C(N)=O)[nH]c2c(-c3ccc(Cl)cc3Cl)cc(F)cc12 [Example 56, 7-(2,4-Dichlorophenyl)-5-fluoro-3-methyl-1H-indole-2-carboxamide]	0.027	198	
Cc1c(C(N)=O)n(C)c2c(-c3ccc(F)cc3)cc(Cl)cc12 [Example 13, 5-Chloro-7-(4-fluorophenyl)-1,3-dimethylindole-2-carboxamide]	1.64	178	
Cc1c(C(N)=O)n(C)c2c(-c3ccc(C(F)(F)F)cc3)cc(C#N)cc12 [Example 6, 5-Cyano-1,3-dimethyl-7-[4-(trifluoromethyl)-phenyl]-indole-2-carboxamide]	2.7	195	
Cc1c(C(N)=O)[nH]c2c(-c3ccc(Cl)cc3Cl)cc(Cl)cc12 [Example 26, 5-Chloro-7-(2,4-dichlorophenyl)-3-methyl-1H-indole-2-carboxamide]	0.33	195	
Cc1c(C(N)=O)n(C)c2c(-c3ccc(Cl)c(F)c3)cc(Cl)cc12 [Example 32, 5-Chloro-7-(4-chloro-3-fluorophenyl)-1,3-dimethylindole-2-carboxamide]	1.02	192	
Cc1c(C(N)=O)[nH]c2c(-c3ccc(F)c(F)c3)cc(C#N)cc12 [Example 7, 5-Cyano-7-(3,4-difluorophenyl)-3-methyl-1H-indole-2-carboxamide]	0.3	222	
Cc1c(C(N)=O)[nH]c2c(-c3ccc(F)cc3)cc(C#N)cc12 [Example 9, 5-Cyano-7-(4-fluorophenyl)-3-methyl-1H-indole-2-carboxamide]	0.22	268	
Cc1c(C(N)=O)n(C)c2c(-c3ccc(C(F)(F)F)cc3)cc(Cl)cc12 [Example 18, 5-Chloro-1,3-dimethyl-7-[4-(trifluoromethyl)phenyl]indole-2-carboxamide]	2.8	206	
Cn1c(C(N)=O)cc2cc(C#N)cc(-c3ccc(C(F)(F)F)cc3)c21 [Example 37, 5-Cyano-1-methyl-7-[4-(trifluoromethyl)-phenyl]-indole-2-carboxamide]	2.62	171	
Cn1c(C(N)=O)cc2cc(C#N)cc(-c3ccc(F)cc3)c21 [Example 38, 5-Cyano-7-(4-fluorophenyl)-1-methylindole-2-carboxamide]	0.19	203.5	
Cc1c(C(N)=O)[nH]c2c(-c3ccc(F)cc3F)cc(Cl)cc12 [Example 25, 5-Chloro-7-(2,4-difluorophenyl)-3-methyl-1H-indole-2-carboxamide]	0.21	196	
Cc1c(C(N)=O)n(C)c2c(-c3ccc(F)c(F)c3)cc(Cl)cc12 [Example 17, 5-Chloro-7-(3,4-difluorophenyl)-1,3-dimethylindole-2-carboxamide]	3.3	196	
Cc1c(C(N)=O)n(C)c2c(-c3ccc(OC(F)(F)F)cc3)cc(C#N)cc12 [Example 21, 5-Cyano-1,3-dimethyl-7-[4-(trifluoromethoxy)phenyl]indole-2-carboxamide]	0.43	106	
Cc1c(C(N)=O)n(C)c2c(-c3ccc(Cl)cc3)cc(C#N)cc12 [Example 1, 7-(4-Chloro-phenyl)-5-cyano-1,3-dimethylindole-2-carboxamide]	0.14	237	
Cn1c(C(N)=O)cc2cc(C#N)cc(-c3ccc(Cl)cc3Cl)c21 [Example 63, 5-Cyano-7-(2,4-dichlorophenyl)-1-methylindole-2-carboxamide]	0.21	222.5	
Cc1c(C(N)=O)n(C)c2c(-c3ccc(F)c(F)c3)cc(F)cc12 [Example 52, 7-(3,4-Difluorophenyl)-5-fluoro-1,3-dimethylindole-2-carboxamide]	0.7	186	
Cc1c(C(N)=O)n(C)c2c(-c3ccc(Cl)cc3Cl)cc(Cl)cc12 [Example 30, 5-Chloro-7-(2,4-dichlorophenyl)-1,3-dimethylindole-2-carboxamide]	0.93	221	
